# Reference: PubChem BioAssay (NCI)
#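 Method: 48-hour compound exposure of cells in 96-well plates, five concentrations, linear interpolation of endpoints. Here, GI50 denotes the concentration required for 50% inhibition of growth. TGI denotes the concentration required for complete inhibition of growth.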
# Assays:
# Test in all cases: inhibition of tumour cell growth, NCI panel, 48 h
# [1] = system: IGROV1 ovarian
# [2] = system: UO-31 renal
# [3] = system: OVCAR-4 ovarian
# [4] = system: NCI-H226 lung
# [5] = system: SK-MEL-2 melanoma
# [6] = system: RXF 393 renal
# [7] = system: SK-MEL-5 melanoma
# [8] = system: SK-OV-3 ovarian
# [9] = system: SK-MEL-28 melanoma
# [10] = system: MCF7 breast
# [11] = system: UACC-62 melanoma
# [12] = system: SR leukemia
# [13] = system: HCT-116 colon
# [14] = system: A549 NSCLC
# [15] = system: HS 578T breast
# [16] = system: A498 renal
# [17] = system: SW-620 colon
# [18] = system: OVCAR-8 ovarian
# [19] = system: OVCAR-3 ovarian
# [20] = system: ACHN renal
# [21] = system: KM12 colon
# [22] = system: HCT-15 colon
# [23] = system: T-47D breast
# [24] = system: COLO 205 colon
# [25] = system: SNB-75 CNS
# [26] = system: MDA-MB-231 breast
# [27] = system: UACC-257 melanoma
# [28] = system: BT-549 breast
# [29] = system: MALME-3M melanoma
# [30] = system: SN12C renal
# [31] = system: HL-60(TB) leukemia
# [32] = system: PC-3 prostate
# [33] = system: SNB-19 CNS
# [34] = system: HT29 colon
# [35] = system: NCI-H522 lung
# [36] = system: NCI/ADR-RES ovarian
# [37] = system: LOX IMVI melanoma
# [38] = system: U251 CNS
# [39] = system: CCRF-CEM leukemia
# [40] = system: HCC-2998 colon
# [41] = system: SF-539 CNS
# [42] = system: MDA-MB-435
# [43] = system: MOLT-4 leukemia
# [44] = system: HOP-92 NSCLC
# [45] = system: SF-295 CNS
# [46] = system: HOP-62 NSCLC
# [47] = system: OVCAR-5 ovarian
# [48] = system: SF-268 CNS
# [49] = system: CAKI-1 renal
# [50] = system: DU-145 prostate
# [51] = system: RPMI-8226 leukemia
# [52] = system: K-562 leukemia
# [53] = system: 786-0 renal
# [54] = system: NCI-H23 lung
# [55] = system: NCI-H460 lung
# [56] = system: M14 melanoma
# [57] = system: TK-10 renal
compound,measurement,setting,value
Cn1cc(C2=C(Oc3ccccc3)C(=O)NC2=O)c2ccccc21,GI50,[1],> 25 µM
same,TGI,[1],> 25 µM
same,GI50,[2],> 25 µM
same,TGI,[2],> 25 µM
same,GI50,[3],> 25 µM
same,TGI,[3],> 25 µM
same,GI50,[4],> 25 µM
same,TGI,[4],> 25 µM
same,GI50,[5],> 25 µM
same,TGI,[5],> 25 µM
same,GI50,[6],> 25 µM
same,TGI,[6],> 25 µM
same,GI50,[7],> 25 µM
same,TGI,[7],> 25 µM
same,GI50,[8],> 25 µM
same,TGI,[8],> 25 µM
same,GI50,[9],> 25 µM
same,TGI,[9],> 25 µM
same,GI50,[10],> 25 µM
same,TGI,[10],> 25 µM
same,GI50,[11],> 25 µM
same,TGI,[11],> 25 µM
same,GI50,[12],> 25 µM
same,TGI,[12],> 25 µM
same,GI50,[13],> 25 µM
same,TGI,[13],> 25 µM
same,GI50,[14],> 25 µM
same,TGI,[14],> 25 µM
same,GI50,[15],> 25 µM
same,TGI,[15],> 25 µM
same,GI50,[16],> 25 µM
same,TGI,[16],> 25 µM
same,GI50,[17],> 25 µM
same,TGI,[17],> 25 µM
same,GI50,[18],> 25 µM
same,TGI,[18],> 25 µM
same,GI50,[19],> 25 µM
same,TGI,[19],> 25 µM
same,GI50,[20],> 25 µM
same,TGI,[20],> 25 µM
same,GI50,[21],> 25 µM
same,TGI,[21],> 25 µM
same,GI50,[22],> 25 µM
same,TGI,[22],> 25 µM
same,GI50,[23],> 25 µM
same,TGI,[23],> 25 µM
same,GI50,[24],> 25 µM
same,TGI,[24],> 25 µM
same,GI50,[25],> 12.4 µM
same,TGI,[25],> 25 µM
same,GI50,[26],> 19.3 µM
same,TGI,[26],> 25 µM
same,GI50,[27],> 25 µM
same,TGI,[27],> 25 µM
same,GI50,[28],> 25 µM
same,TGI,[28],> 25 µM
same,GI50,[29],> 25 µM
same,TGI,[29],> 25 µM
same,GI50,[30],> 25 µM
same,TGI,[30],> 25 µM
same,GI50,[31],> 25 µM
same,TGI,[31],> 25 µM
same,GI50,[32],> 25 µM
same,TGI,[32],> 25 µM
same,GI50,[33],> 25 µM
same,TGI,[33],> 25 µM
same,GI50,[34],> 25 µM
same,TGI,[34],> 25 µM
same,GI50,[35],> 25 µM
same,TGI,[35],> 25 µM
same,GI50,[36],> 25 µM
same,TGI,[36],> 25 µM
same,GI50,[37],> 25 µM
same,TGI,[37],> 25 µM
same,GI50,[38],> 25 µM
same,TGI,[38],> 25 µM
same,GI50,[39],> 25 µM
same,TGI,[39],> 25 µM
same,GI50,[40],> 25 µM
same,TGI,[40],> 25 µM
same,GI50,[41],> 25 µM
same,TGI,[41],> 25 µM
same,GI50,[42],> 25 µM
same,TGI,[42],> 25 µM
same,GI50,[43],> 25 µM
same,TGI,[43],> 25 µM
same,GI50,[44],6.32 µM
same,TGI,[44],> 25 µM
same,GI50,[45],> 25 µM
same,TGI,[45],> 25 µM
same,GI50,[46],> 17.8 µM
same,TGI,[46],> 25 µM
same,GI50,[47],> 25 µM
same,TGI,[47],> 25 µM
same,GI50,[48],> 25 µM
same,TGI,[48],> 25 µM
same,GI50,[49],> 25 µM
same,TGI,[49],> 25 µM
same,GI50,[50],> 25 µM
same,TGI,[50],> 25 µM
same,GI50,[51],> 25 µM
same,TGI,[51],> 25 µM
same,GI50,[52],> 25 µM
same,TGI,[52],> 25 µM
same,GI50,[53],> 25 µM
same,TGI,[53],> 25 µM
same,GI50,[54],> 25 µM
same,TGI,[54],> 25 µM
same,GI50,[55],> 25 µM
same,TGI,[55],> 25 µM
same,GI50,[56],> 25 µM
same,TGI,[56],> 25 µM
same,GI50,[57],> 25 µM
same,TGI,[57],> 25 µM
